Assay results published in patent US8637523B2, “Compounds for the reduction of beta-amyloid production” (Bristol-Myers Squibb Company, priority 2010, dated 2014).
Like-named read-outs stand apart in the source and are kept apart here.

Tested on: Aβ42
Experiment: Cellular assay for inhibition of Aβ1-42 production (H4 APP751 SWE clone 8.20)
Format: cell-based
Settings: H4 APP751 SWE clone 8.20 cells, 19 h incubation
Experimental: Cellular Assays for Inhibition of Aβ1-40 and Aβ1-42 Production
H4 cells stably transfected with APP751 containing the Swedish mutation (H4 APP751 SWE clone 8.20, developed at BMS) were maintained in log phase through twice weekly passage at a 1:20 split. […] Following incubation for 19 h in 5% CO2 at 37° C., plates were briefly centrifuged (1000 rpm, 5 min). A 10 μl aliquot from each well was transferred to a second assay plate (Costar 3709) for Aβ40 measurements. Antibody cocktails were freshly prepared by dilution into 40 mM Tris-HCl (pH 7.4) with 0.2% BSA and added to assay plates. For Aβ42 measurements, antibodies specific for the Aβ42 neoepitope (565, developed at BMS; conjugated to the Wallac reagent (Perkin Elmer)) and the N-terminal sequence of Aβ peptide (26D6, developed at SIBIA; conjugated to APC (Perkin Elmer)) were mixed and 20 μl of the mixture was added to each well of the incubated cell plate yielding a final concentration of 0.8 ng/well 565 and 75 ng/well 26D6. For the Aβ40 measurements, antibodies specific for the Aβ40 neoepitope (TSD, developed at BMS; conjugated to the Wallac reagent (Perkin Elmer)) and 26D6 as described above were mixed and 20 μl of the mixture was added to the 10 μl aliquots which had been removed previously from the cell plate yielding a final concentration of 1.6 ng/well TSD and 17.5 ng/well 26D6. Assay plates containing antibodies were sealed with aluminum foil and incubated overnight at 4° C. Signal was determined using a Viewlux counter (Perkin Elmer) and IC50 values determined using curve fitting in CurveMaster (Excel Fit based).

[1] = read-out: Activity Rating (Aβ42 cellular IC50), class symbol
[2] = 19 h, read-out: Activity Rating (Aβ42 cellular IC50), class symbol
[3] = unit inferred, read-out: Activity Rating (Aβ42 cellular IC50), numeric value

IC50 [1] [nM]	other results	SMILES
10 to 100	–	Cc1ncn(-c2ccc3cc2OCCCCNc2nc(nc4c2CN(C)CC4c2ccc(F)cc2)N3)n1 (racemic) [Example 70A, 19-(4-fluorophenyl)-17-methyl-7-(3-methyl-1H-1,2,4-triazol-1-yl)-11,12,13,14,16,17,18,19-octahydro-10H-15,2-(azeno)-8,4-(metheno)pyrido[3,4-h][1,6,10,12]oxatriazacycloheptadecine]
–	IC50 [2]: < 10 nM	Cc1ncn(-c2ccc3cc2OCCCCNc2nc(nc4c2CN(C)CC4c2ccc(F)cc2)N3)n1 (racemic) [Example 70B, 19-(4-fluorophenyl)-17-methyl-7-(3-methyl-1H-1,2,4-triazol-1-yl)-11,12,13,14,16,17,18,19-octahydro-10H-15,2-(azeno)-8,4-(metheno)pyrido[3,4-h][1,6,10,12]oxatriazacycloheptadecine]
–	IC50 [2]: 10 to 100 nM	CN1Cc2c3nc(nc2C(c2ccc(F)cc2)C1)Nc1ccc(C#N)c(c1)OCCCCN3 (racemic) [Example 71, 7-cyano-19-(4-fluorophenyl)-17-methyl-11, 12, 13,14,16,17,18,19-octahydro-10H-15,2-(azeno)-8,4-(metheno)pyrido[3,4-h][1,6,10,12]oxatriazacycloheptadecine]
–	IC50 [2]: 10 to 100 nM	CN1Cc2c(nc3nc2N(C)C/C=C\COc2cc(ccc2C#N)N3)C(c2ccc(F)cc2)C1 (racemic) [Example 74, (11Z)-14,17-dimethyl-7-cyano-19-(4-fluorophenyl)-13,14,16,17,18,19-hexahydro-10H-15,2-(azeno)-8,4-(metheno)pyrido[3,4-h][1,6,10,12]oxatriazacycloheptadecine]
< 10	–	Clc1cn(-c2ccc3cc2OC/C=C\CCc2nc(nc4c2CCC4c2ccccc2)N3)cn1 (single isomer, unassigned) [Example 16A, (11Z)-7-(4-chloro-1H-imidazol-1-yl)-18-phenyl-10,13,14,16,17,18-hexahydro-15,2-(azeno)-8,4-(metheno)cyclopenta[h][1,10,12]oxadiazacycloheptadecine]
10 to 100	–	Clc1cn(-c2ccc3cc2OC/C=C\CCc2nc(nc4c2CCC4c2ccccc2)N3)cn1 (single isomer, unassigned) [Example 16B, (11Z)-7-(4-chloro-1H-imidazol-1-yl)-18-phenyl-10,13,14,16,17,18-hexahydro-15,2-(azeno)-8,4-(metheno)cyclopenta[h][1,10,12]oxadiazacycloheptadecine]
10 to 100	–	N#Cc1ccc2cc1OCCNCCNc1nc(nc3c1CCC3c1ccc(F)cc1)N2 (single isomer, unassigned) [Example 26A, 7-cyano-19-(4-fluorophenyl)-11,12,13,14,15,17,18,19-octahydro-10H-16,2-(azeno)-8,4-(metheno)cyclopenta[i][1,4,7,11,13]oxatetraazacyclooctadecine]
100 to 1000	–	N#Cc1ccc2cc1OCCNCCNc1nc(nc3c1CCC3c1ccc(F)cc1)N2 (single isomer, unassigned) [Example 26B, 7-cyano-19-(4-fluorophenyl)-11,12,13,14,15,17,18,19-octahydro-10H-16,2-(azeno)-8,4-(metheno)cyclopenta[i][1,4,7,11,13]oxatetraazacyclooctadecine]
10 to 100	–	CN1CCNc2nc(nc3c2CCC3c2ccc(F)cc2)Nc2ccc(C#N)c(c2)OCC1 (single isomer, unassigned) [Example 27A, 7-cyano-19-(4-fluorophenyl)-12-methyl-11,12,13,14,15,17,18,19-octahydro-10H-16,2-(azeno)-8,4-(metheno)cyclopenta[i][1,4,7,11,13]oxatetraazacyclooctadecine]
100 to 1000	–	CN1CCNc2nc(nc3c2CCC3c2ccc(F)cc2)Nc2ccc(C#N)c(c2)OCC1 (single isomer, unassigned) [Example 27B, 7-cyano-19-(4-fluorophenyl)-12-methyl-11,12,13,14,15,17,18,19-octahydro-10H-16,2-(azeno)-8,4-(metheno)cyclopenta[i][1,4,7,11,13]oxatetraazacyclooctadecine]
10 to 100	–	CN1CCCCOc2cc(ccc2C#N)Nc2nc3c(c1n2)CCC3c1ccc(F)cc1F (single isomer, unassigned) [Example 32A, 7-cyano-18-(2,4-difluorophenyl)-14-methyl-10,11,12,13,14,16,17,18-octahydro-15,2-(azeno)-8,4-(metheno)cyclopenta[h][1,6,10,12]oxatriazacycloheptadecine]
100 to 1000	–	CN1CCCCOc2cc(ccc2C#N)Nc2nc3c(c1n2)CCC3c1ccc(F)cc1F (single isomer, unassigned) [Example 32B, 7-cyano-18-(2,4-difluorophenyl)-14-methyl-10,11,12,13,14,16,17,18-octahydro-15,2-(azeno)-8,4-(metheno)cyclopenta[h][1,6,10,12]oxatriazacycloheptadecine]
–	IC50 [3]: 21 nM	CN1CCCCOc2cc(ccc2C#N)Nc2nc3c(c1n2)CCC3c1ccccc1 (single isomer, unassigned) [Example 34A, 7-cyano-14-methyl-18-phenyl-10,11,12,13,14,16,17,18-octahydro-15,2-(azeno)-8,4-(metheno)cyclopenta[h][1,6,10,12]oxatriazacycloheptadecine]
–	IC50 [3]: 160 nM	CN1CCCCOc2cc(ccc2C#N)Nc2nc3c(c1n2)CCC3c1ccccc1 (single isomer, unassigned) [Example 34B, 7-cyano-14-methyl-18-phenyl-10,11,12,13,14,16,17,18-octahydro-15,2-(azeno)-8,4-(metheno)cyclopenta[h][1,6,10,12]oxatriazacycloheptadecine]
10 to 100	–	Cc1ncn(-c2ccc3cc2OCCNCCNc2nc(nc4c2CCC4c2ccc(F)cc2)N3)n1 (single isomer, unassigned) [Example 55A, 19-(4-fluorophenyl)-7-(3-methyl-1H-1,2,4-triazol-1-yl)-11,12,13,14,15,17,18,19-octahydro-10H-16,2-(azeno)-8,4-(metheno)cyclopenta[i][1,4,7,11,13]oxatetraazacyclooctadecine]
–	IC50 [2]: 10 to 100 nM	Cc1ncn(-c2ccc3cc2OCCNCCNc2nc(nc4c2CCC4c2ccc(F)cc2)N3)n1 (single isomer, unassigned) [Example 55B, 19-(4-fluorophenyl)-7-(3-methyl-1H-1,2,4-triazol-1-yl)-11,12,13,14,15,17,18,19-octahydro-10H-16,2-(azeno)-8,4-(metheno)cyclopenta[i][1,4,7,11,13]oxatetraazacyclooctadecine]
< 10	–	Cc1ncn(-c2ccc3cc2OCC(O)CCNc2nc(nc4c2CCC4c2ccc(F)cc2)N3)n1 (single isomer, unassigned) [Example 72A, 18-(4-fluorophenyl)-7-(3-methyl-1H-1,2,4-triazol-1-yl)-10,11,12,13,14,16,17,18-octahydro-15,2-(azeno)-8,4-(metheno)cyclopenta[h][1,6,10,12]oxatriazacycloheptadecin-11(3H)-ol]
–	IC50 [2]: < 10 nM	Cc1ncn(-c2ccc3cc2OCC(O)CCNc2nc(nc4c2CCC4c2ccc(F)cc2)N3)n1 (single isomer, unassigned) [Example 72B, 18-(4-fluorophenyl)-7-(3-methyl-1H-1,2,4-triazol-1-yl)-10,11,12,13,14,16,17,18-octahydro-15,2-(azeno)-8,4-(metheno)cyclopenta[h][1,6,10,12]oxatriazacycloheptadecin-11(3H)-ol]
< 10	–	Cc1ncn(-c2ccc3cc2OCC(O)CCNc2nc(nc4c2CCC4c2ccc(F)cc2)N3)n1 (single isomer, unassigned) [Example 72C, 18-(4-fluorophenyl)-7-(3-methyl-1H-1,2,4-triazol-1-yl)-10,11,12,13,14,16,17,18-octahydro-15,2-(azeno)-8,4-(metheno)cyclopenta[h][1,6,10,12]oxatriazacycloheptadecin-11(3H)-ol]
< 10	–	Cc1ncn(-c2ccc3cc2OCC(O)CCNc2nc(nc4c2CCC4c2ccc(F)cc2)N3)n1 (single isomer, unassigned) [Example 72D, 18-(4-fluorophenyl)-7-(3-methyl-1H-1,2,4-triazol-1-yl)-10,11,12,13,14,16,17,18-octahydro-15,2-(azeno)-8,4-(metheno)cyclopenta[h][1,6,10,12]oxatriazacycloheptadecin-11(3H)-ol]
–	IC50 [2]: 10 to 100 nM	N#Cc1ccc2cc1OCC(O)CCNc1nc(nc3c1CCC3c1ccc(F)cc1)N2 (single isomer, unassigned) [Example 73A, 7-cyano-18-(4-fluorophenyl)-10,11,12,13,14,16,17,18-octahydro-15,2-(azeno)-8,4-(metheno)cyclopenta[h][1,6,10,12]oxatriazacycloheptadecin-11(3H)-ol]
10 to 100	–	N#Cc1ccc2cc1OCC(O)CCNc1nc(nc3c1CCC3c1ccc(F)cc1)N2 (single isomer, unassigned) [Example 73C, 7-cyano-18-(4-fluorophenyl)-10,11,12,13,14,16,17,18-octahydro-15,2-(azeno)-8,4-(metheno)cyclopenta[h][1,6,10,12]oxatriazacycloheptadecin-11(3H)-ol]
